Assay results as given in patent US12338270B2, “Pharmaceutical composition comprising polypeptide” (D&D Pharmatech Inc., priority 2018, dated 2025).
Non-standard residues stand in square brackets, D forms with d. No end group written: not given here. tri‑branched mPEG‑MAL 50 kDa = tri-branched maleimide-activated monomethoxy PEG, 50 kDa; Aib = CC(C)(N)C(=O)O

Assays:
Type in all cases: in vivo
db/db mice [1] = test: ipGTT in db/db mice after 12-day administration; design: blood glucose in ipGTT: unit not given here; settings: for blood glucose in ipGTT: db/db mice after 12 days of 20 nmol/kg s.c. once every other day
Description: (§1) Next, to perform an intraperitoneal glucose tolerance test (ipGTT), 2 g/kg of glucose was administered intraperitoneally after the 12-day administration of the drug, and a change in blood glucose with the elapse of time (0, 15, 30, 60, 90, and 120 minutes) was measured. To determine a degree of long-term change in average blood glucose level, a level of glycated hemoglobin (HbA1c) was also measured after the drug administration.

[2] = test system: obesity animal model (C57BL/6 mice, 60% high-fat diet); test: intraperitoneal glucose tolerance test (ipGTT) in obesity model after 2-week administration (Experimental Example 3); design: blood glucose in ipGTT: unit not given here; settings: after 2 weeks of 20 nmol/kg s.c. once every other day
Description: This experiment was performed in the same manner as in Experimental Example 2, and then the glucose tolerance was evaluated in a mouse model using an intraperitoneal glucose tolerance test (ipGTT).
After the 2-weeks administration of the drugs was completed in the same manner as in Experimental Example 2, 2 g/kg of glucose was administered intraperitoneally to measure a change in blood glucose with the elapse of time (0, 15, 30, 60, 90, and 120 minutes).

[3] = test system: obesity animal model (C57BL/6 mice, 60% high-fat diet); test: blood glucose in obesity model, Examples 2 and 6 (Experimental Example 6); settings: 20 nmol/kg s.c. once every other day for 2 weeks; FIG. 5
Description: (§2) To check a preventing or therapeutic effect of the conjugates of Examples 2 and 6, which had different amino acid sequences, on obesity or diabetes, an animal model of obesity was prepared by feeding a 60% high-fat diet to normal C57BL/6 mice (approximately 6 weeks old) for approximately 24 weeks, and increasing the body weights of the mice to approximately 50 g in average. Thereafter, each of the conjugates of Examples 2 or 6 was administered by subcutaneous injection at a dose of 20 nmol/kg once every other day for 2 weeks. As the control, PBS was administered instead of the conjugates of Examples. For 2 weeks when the conjugates of Examples 2 or 6 were administered, changes in blood glucose with time were measured. Also, to perform an intraperitoneal glucose tolerance test (ipGTT), 2 g/kg of glucose was administered intraperitoneally after the 2-week administration of the drug, and changes in blood glucose with the elapse of time (0, 15, 30, 60, 90, and 120 minutes) were measured.

[4] = test system: obesity animal model (C57BL/6 mice, 60% high-fat diet); test: ipGTT in obesity model, Examples 2 and 6 (Experimental Example 6); settings: 2 g/kg glucose i.p. after 2 weeks of 20 nmol/kg s.c. once every other day; FIG. 6
Description: as §2

[5] = test system: animal model of non-alcoholic fatty liver diseases (C57BL/6 mice, 60% high-fat diet); test: non-alcoholic fatty liver disease model, 60% high-fat diet (Experimental Example 7); settings: 20 nmol/kg s.c. once every other day for 2 weeks
Description: Specifically, first of all, a laboratory animal model of non-alcoholic fatty liver diseases was prepared by feeding a 60% high-fat diet to normal C57BL/6 mice (approximately 6 weeks old) for approximately 24 weeks, and increasing the body weights of the mice to approximately 50 g in average. Thereafter, the conjugate of Example 2 was administered by subcutaneous injection at a dose of 20 nmol/kg once every other day for 2 weeks. […] After the 2-week administration of the drug, blood was collected from the mice to measure a serum cholesterol concentration, and the livers were extracted, weighed, embedded in paraffin, and then microtomed into thin slices. Thereafter, the liver biopsy was conducted using a hematoxylin & eosin (H&E).

db/db mice [6] = test: glycated hemoglobin (HbA1c) in db/db mice after administration; settings: db/db mice after administration of 20 nmol/kg s.c. once every other day; FIG. 3
Description: as §1

[7] = test system: obesity animal model (C57BL/6 mice, 60% high-fat diet); test: body weight, food intake and blood glucose in high-fat diet obesity animal model (Experimental Example 2); settings: for Blood glucose / Body weight / Food intake: 20 nmol/kg s.c. once every other day; for Food intake: cumulative
Description: First, an obesity animal model was prepared by feeding a 60% high-fat diet to normal C57BL/6 mice (approximately 6 weeks old) for approximately 24 weeks, and increasing the body weights of the mice to approximately 50 g on average. Thereafter, the conjugate of Example 2 was administered by subcutaneous injection at a dose of 20 nmol/kg once every other day for 2 weeks. […] For 2 weeks when the drug was administered, the food intake, the blood glucose, and the body weights were measured once every other day at given points of time.
In this case, the body weights and the blood glucose were expressed in the percentage (%) on the basis of 100% before the administration (Day 0).

[8] = test system: animal model of non-alcoholic fatty liver diseases (C57BL/6 mice, high-trans-fat diet); test: non-alcoholic fatty liver disease model, high-trans-fat diet (Experimental Example 8); settings: 20 nmol/kg s.c. once every three days for 4 weeks, also lowered vs liraglutide
Description: First of all, a laboratory animal model of non-alcoholic fatty liver diseases was prepared by feeding a high-trans-fat diet, which contained 40% high fats, 20% fructose, and 2% cholesterol, to normal C57BL/6 mice (approximately 6 weeks old) for approximately 16 weeks. Thereafter, the conjugate of Example 2 was administered by subcutaneous injection at a dose of 20 nmol/kg once every three days for 4 weeks. […] After the 4-week experiment was completed, a level of serum cholesterol, the liver weights, and the hepatic triglycerides (hepatic TGs) were measured.

[9] = 0 min after 2 g/kg glucose i.p.
[10] = 15 min after 2 g/kg glucose i.p.
[11] = 30 min after 2 g/kg glucose i.p.
[12] = 60 min after 2 g/kg glucose i.p.
[13] = 90 min after 2 g/kg glucose i.p.
[14] = 120 min after 2 g/kg glucose i.p.
[15] = day 0 (before administration = 100%)

“Example 2: Conjugate of polypeptide H(Aib)QGTFTSDYSKYLDEQAAKEFVQWLMNTC (SEQ ID NO. 2) and tri-branched mPEG-MAL (MW: 50 kDa) (H[Aib]QGTFTSDYSKYLDEQAAKEFVQWLMNTC(tri‑branched mPEG‑MAL 50 kDa); lactam (positions not given here); not fully specified (bridges); printed as H(Aib)QGTFTSDYSKYLDEQAAKEFVQWLMNTC)” was tested, and the “blood glucose in ipGTT” value (db/db mice [1]; [9]) was 63, the “blood glucose in ipGTT” value (db/db mice [1]; [10]) was 190 and the “blood glucose in ipGTT” value (db/db mice [1]; [11]) was 246. The “blood glucose in ipGTT” value (db/db mice [1]; [12]) was 341, the “blood glucose in ipGTT” value (db/db mice [1]; [13]) was 356 and the “blood glucose in ipGTT” value (db/db mice [1]; [14]) was 396. The “glucose tolerance in ipGTT” value (db/db mice [1]; db/db mice after 12-day administration) was “higher glucose tolerance than the non-treated group”, the “blood glucose in ipGTT” value [2, 9] was 40 and the “blood glucose in ipGTT” value [2, 10] was 216. The “blood glucose in ipGTT” value [2, 11] was 172, the “blood glucose in ipGTT” value [2, 12] was 61 and the “blood glucose in ipGTT” value [2, 13] was 48. The “blood glucose in ipGTT” value [2, 14] was 44, the “increase in blood glucose in ipGTT vs non-treated group” value [2] was “an increase in blood glucose was significantly reduced” and the “level of blood glucose vs control” value [3] was “a level of blood glucose was lowered”. The “increase in blood glucose in ipGTT vs control” value [4] was “an increase in blood glucose was significantly reduced”, the “hepatic steatosis in liver biopsy vs non-treated group” value ([5]; H&E, also reduced vs liraglutide, FIG. 9) was “significantly reduced” and the “level of serum cholesterol vs non-treated group” value ([5]; also lowered vs liraglutide, FIG. 7) was “significantly lowered”. The “liver weights vs non-treated group” value ([5]; also lowered vs liraglutide, FIG. 8) was “significantly lowered”, the “level of glycated hemoglobin (HbA1c)” value (db/db mice [6]) was “significantly lower a level of glycated hemoglobin” and the “level of blood glucose reduced compared to before the administration” value ([7]; 20 nmol/kg s.c. once every other day for 2 weeks) was “approximately 80%”. For the same substance, the Blood glucose [7, 15] was 100%, the Body weight [7, 15] was 100% and the Food intake ([7]; day 0) was 0 g. For the same substance, the Blood glucose ([7]; day 2, % of Day 0) was 87%, the Body weight ([7]; day 2, % of Day 0) was 97% and the Food intake ([7]; day 2) was 4 g. It also gave a Blood glucose ([7]; day 4, % of Day 0) of 75%, a Body weight ([7]; day 4, % of Day 0) of 94% and a Food intake ([7]; day 4) of 8 g. The Blood glucose ([7]; day 6, % of Day 0) was 48%, the Body weight ([7]; day 6, % of Day 0) was 89% and the Food intake ([7]; day 6) was 11 g. For the same substance, the Blood glucose ([7]; day 8, % of Day 0) was 32%, the Body weight ([7]; day 8, % of Day 0) was 82% and the Food intake ([7]; day 8) was 13 g. The Blood glucose ([7]; day 10, % of Day 0) was 35%, the Body weight ([7]; day 10, % of Day 0) was 74% and the Food intake ([7]; day 10) was 15 g. The Blood glucose ([7]; day 12, % of Day 0) was 32%, the Body weight ([7]; day 12, % of Day 0) was 68% and the Food intake ([7]; day 12) was 17 g. For the same substance, the Blood glucose ([7]; day 14, % of Day 0) was 18%, the Body weight ([7]; day 14, % of Day 0) was 61% and the “level of serum cholesterol vs non-treated group” value ([8]; FIG. 10) was “significantly lowered”. For the same substance, the “liver weights vs non-treated group” value ([8]; FIG. 11) was “significantly lowered” and the “hepatic triglycerides vs non-treated group” value ([8]; FIG. 12) was “significantly lowered”.
